This note sets out measurements from US6747135B1, “Fluorescent dye binding peptides” (The Board of Trustees for the Leland Stanford Junior …, priority 1998, dated 2004).

The nature of experiment [1]: Peptide-Texas Red binding in solution, excitation and emission spectra. The conditions noted are these: 10 μM peptide, 50 nM Texas Red, TBS, 1 hr RT. How it is done:
FIGS. 5A and 5B. Peptide—Texas Red binding. Excitation and emission spectra. Peptides at the noted concentrations were incubated with Texas Red (50 nM), or without, in 0.6 ml of TBS for 1 hr at room temperature (RT). Samples were scanned on a spectrofluorimeter (SPEX Fluoromax (Jobin Yvon-SPEX Instruments Co.)). Excitation and excitation/emission peak shifts for PepTR401(10 μM)/Texas Red and PepTRS311 (10 μM)/Texas Red complexes, respectively (A), were reproducible in three independent experiments. The results of a single experiment are presented.
(§1) The above test only checks for bound dye that remains fluorescent at the wavelengths tested. Binding of fluorophore dyes to specific peptides might result in changes in the fluorescence spectra of bound dye versus the spectra of free dye. Or, one might observe an increase or quenching of fluorescence. We mixed concentrated peptide with 50 nM of the corresponding dye in solution and determined the excitation and emission spectra of the resulting mixture.
We attempted with these findings to obtain an affinity measurement for the higher affinity TRS311 peptide. Peptides in different concentrations (1.3-20 μM) were incubated with Texas Red (50 nM) in 0.6 ml of TBS buffer for 1 hr at RT. Excitation and emission spectra of samples were obtained by using spectrofluorimeter SPEX Fluoromax (Jobin Yvon-SPEX Instruments Co.) and DataMax software package. Peak positions were automatically calculated by software. List mode data was saved for other analyses.

The nature of experiment [2]: Dye binding to peptide-coated cobalt Sepharose beads, fluorescence microscopy. As to conditions: Fluorescein.
Test in experiment [3]: as above
The conditions noted are these: 0.5 μM Texas Red in TBS, 1 hr, RT. How it is done:
FIG. 6. Texas Red-specific peptide PepTR401 (Panel A), PepTRS311 (Panel B), PepTR406 (Panel C) and nonspecific PepControl (Panel D) (see peptide sequences in Table 4) were bound via His6 tag to cobalt ion-containing Sepharose beads. The peptide coated beats were washed and incubated with 0.5 micromolar Texas Red in TBS for 1 hour at room temperature followed by several washings of beads in order to remove unbound dye. Fluorescent and nonflourescent control beads were photographed on fluorescent microscope Axiophot (Zeiss) using Rhodamine Red/Texas Red filter with the same time exposure for every sample. All binding experiments were accomplished in three parallels and results of a single experiments are shown.
Peptides were bound to cobalt ion-coated Sepharose beads and the resultant peptide-coated beads were incubated with corresponding fluorophore dyes, washed, and visualized for dye binding. The same amounts of Texas Red-specific peptides PepTR401, PepTRS311, PepTR406 as well as nonspecific peptide PepControl (see Table 4) were bound via His6 tag to the TALON Metal Affinity Resin (Clontech) in TBS buffer essentially as described by manufacturer's protocol. Beads (5 μl) were washed twice with 0.5 ml TBS to remove unbound peptide and incubated with 0.5 μM Texas Red in 40 μl of TBS buffer for 1 hr at RT. Finally, the beads were washed three times with 0.3 ml TBS to remove unbound dye. Fluorescent and nonfluorescent control beads were photographed with 10-fold magnification on fluorescent microscope Axiophot (Zeiss) using Rhodamine Red/Texas Red filter with 5″ exposure.

Test in experiment [4]: as above
As to conditions: Oregon Green 514.

The nature of experiment [5]: Peptide-Fluorescein binding in solution, excitation and emission spectra. As to conditions: peptide with 50 nM Fluorescein. On the procedure: as §1

Regarding “KHVOYWTOMFYSGGGSAETVGGGHHHHHH (KHVQYWTQMFYSGGGSAETVGGGHHHHHH; fluorette) [PepTR401]”, the peak emission shift entry in experiment [1] is reported as “no emission shift change”. Further, the peak excitation shift result in experiment [1] was “+1.9 nm”. The “dye binding to peptide-coated beads” value in experiment [2] is on record as “bound to neither Oregon Green 514 nor Fluorescein”; in experiment [3], “significant binding”; in experiment [4] it was “bound to neither Oregon Green 514 nor Fluorescein”. In addition, the “shift in Fluorescein excitation or emission spectra” value in experiment [5] was “no shift”.
